Type in all cases: biochemical
In assay [1] the target is JAK2 (Homo sapiens, UniProt O60674). Briefly: JAK2 inhibition assay (as Example 3 with JAK-2 enzyme). Put shortly: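 In HEPES pH 7.4 buffer with 10 mM MgCl2, 1 mM DTT, 25 mM NaCl and 0.01% BSA, JAK2 enzyme phosphorylated poly(Glu)4Tyr (final 15 μM) using 33P-ATP (final 12 μM) for 20 min at room temperature (25 °C). Reactions stopped with TCA; incorporated 33P measured by scintillation after filtration.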

For assay [2], the target named is T1, JAK3 (Homo sapiens, UniProt P52333).
T1 sequence (P52333 1-1124): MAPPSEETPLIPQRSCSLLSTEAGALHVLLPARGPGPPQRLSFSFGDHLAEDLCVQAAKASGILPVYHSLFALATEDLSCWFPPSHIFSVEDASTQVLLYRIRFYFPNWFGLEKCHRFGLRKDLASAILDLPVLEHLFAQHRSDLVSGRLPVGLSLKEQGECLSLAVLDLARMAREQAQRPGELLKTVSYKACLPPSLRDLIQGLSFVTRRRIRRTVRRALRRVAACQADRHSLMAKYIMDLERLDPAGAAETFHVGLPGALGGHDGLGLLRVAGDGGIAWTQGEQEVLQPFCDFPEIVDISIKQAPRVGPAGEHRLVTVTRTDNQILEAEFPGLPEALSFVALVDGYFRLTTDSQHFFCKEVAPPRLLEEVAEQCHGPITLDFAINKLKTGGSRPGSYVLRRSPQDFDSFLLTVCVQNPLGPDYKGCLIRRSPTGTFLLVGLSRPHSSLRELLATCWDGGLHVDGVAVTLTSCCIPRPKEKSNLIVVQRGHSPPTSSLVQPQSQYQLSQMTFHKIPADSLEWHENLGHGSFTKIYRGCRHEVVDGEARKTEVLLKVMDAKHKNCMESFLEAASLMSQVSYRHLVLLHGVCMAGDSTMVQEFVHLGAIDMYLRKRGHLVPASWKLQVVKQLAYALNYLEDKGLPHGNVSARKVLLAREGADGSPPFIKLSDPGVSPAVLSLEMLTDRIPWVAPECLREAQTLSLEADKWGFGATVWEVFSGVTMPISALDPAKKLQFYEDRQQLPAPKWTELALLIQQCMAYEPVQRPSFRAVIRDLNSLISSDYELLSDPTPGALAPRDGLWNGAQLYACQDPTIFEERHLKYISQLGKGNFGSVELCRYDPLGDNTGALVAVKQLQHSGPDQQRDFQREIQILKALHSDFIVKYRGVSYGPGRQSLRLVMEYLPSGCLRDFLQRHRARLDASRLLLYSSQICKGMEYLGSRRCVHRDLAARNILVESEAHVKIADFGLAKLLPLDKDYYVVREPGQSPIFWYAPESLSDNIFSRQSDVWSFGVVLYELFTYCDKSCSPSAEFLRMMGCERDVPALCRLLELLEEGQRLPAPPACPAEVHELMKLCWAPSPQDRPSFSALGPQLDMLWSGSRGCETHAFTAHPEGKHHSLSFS
Briefly: JAK3 inhibition assay (33P incorporation into poly(Glu)4Tyr). In outline:
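After TCA quench and filter harvest, scintillation counting of 33P measured phosphorylation of poly(Glu)4Tyr (1 μM) by 1 nM JAK3. The 20-min, 25° C. reaction contained 5 μM ATP (200 μCi/μmole) in pH 7.4 HEPES buffer with 10 mM MgCl2.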

Assay [3] has as its target ROCK I (Homo sapiens, UniProt Q13464). Briefly: ROCK-I inhibition assay (radioactive enzyme assay, MBP substrate). In outline: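 Human ROCK at 5 nM phosphorylated 27 μM myelin basic protein with 13 μM [γ-33P]ATP (final) in HEPES pH 7.5, MgCl2, NaCl, DTT and 1.5% DMSO. Reactions ran 2 h at room temperature before TCA quench and filter-plate scintillation counting. After background subtraction, data were fit to give Ki(app).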

[4] abbreviates: Table 6, enzyme inhibition data (Ki).
The mark [5] stands for this setting: enzyme inhibition, Ki(app), Table 5.

Sequence of ROCK I (Q13464 whole entry): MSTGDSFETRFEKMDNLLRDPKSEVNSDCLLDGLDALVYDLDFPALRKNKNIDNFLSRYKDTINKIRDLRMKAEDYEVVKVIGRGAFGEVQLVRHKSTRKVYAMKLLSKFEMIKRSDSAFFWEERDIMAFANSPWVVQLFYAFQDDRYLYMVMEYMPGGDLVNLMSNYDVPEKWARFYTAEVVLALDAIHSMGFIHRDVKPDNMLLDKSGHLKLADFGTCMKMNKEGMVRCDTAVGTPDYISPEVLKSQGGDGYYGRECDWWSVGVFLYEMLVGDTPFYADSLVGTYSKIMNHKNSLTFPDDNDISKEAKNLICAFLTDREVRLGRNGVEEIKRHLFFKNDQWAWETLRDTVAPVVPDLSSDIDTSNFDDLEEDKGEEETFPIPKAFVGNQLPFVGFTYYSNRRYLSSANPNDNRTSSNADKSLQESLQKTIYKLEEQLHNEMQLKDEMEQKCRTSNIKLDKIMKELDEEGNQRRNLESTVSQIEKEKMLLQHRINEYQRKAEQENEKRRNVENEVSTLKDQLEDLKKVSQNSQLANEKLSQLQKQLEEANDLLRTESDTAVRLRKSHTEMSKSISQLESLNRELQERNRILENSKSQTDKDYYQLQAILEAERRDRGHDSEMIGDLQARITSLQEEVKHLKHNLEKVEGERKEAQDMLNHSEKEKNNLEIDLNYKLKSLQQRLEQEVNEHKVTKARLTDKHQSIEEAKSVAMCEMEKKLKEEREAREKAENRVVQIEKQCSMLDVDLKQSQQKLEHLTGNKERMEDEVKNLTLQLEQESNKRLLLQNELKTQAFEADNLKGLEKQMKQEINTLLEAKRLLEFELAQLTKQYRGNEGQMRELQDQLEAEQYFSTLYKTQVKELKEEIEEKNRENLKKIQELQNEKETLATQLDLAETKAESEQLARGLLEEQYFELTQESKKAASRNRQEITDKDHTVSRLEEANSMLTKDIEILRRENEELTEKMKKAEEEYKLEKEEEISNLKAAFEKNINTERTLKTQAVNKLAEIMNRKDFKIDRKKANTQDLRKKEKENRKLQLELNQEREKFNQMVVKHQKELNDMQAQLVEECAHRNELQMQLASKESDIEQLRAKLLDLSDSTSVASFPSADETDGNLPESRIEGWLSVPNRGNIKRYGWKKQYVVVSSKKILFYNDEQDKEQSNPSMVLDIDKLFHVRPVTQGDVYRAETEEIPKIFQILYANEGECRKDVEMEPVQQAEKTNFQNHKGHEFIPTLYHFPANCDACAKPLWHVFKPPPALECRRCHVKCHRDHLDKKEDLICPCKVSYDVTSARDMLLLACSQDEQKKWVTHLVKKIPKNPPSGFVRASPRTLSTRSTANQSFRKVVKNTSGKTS
Sequence of JAK2 (O60674 whole entry): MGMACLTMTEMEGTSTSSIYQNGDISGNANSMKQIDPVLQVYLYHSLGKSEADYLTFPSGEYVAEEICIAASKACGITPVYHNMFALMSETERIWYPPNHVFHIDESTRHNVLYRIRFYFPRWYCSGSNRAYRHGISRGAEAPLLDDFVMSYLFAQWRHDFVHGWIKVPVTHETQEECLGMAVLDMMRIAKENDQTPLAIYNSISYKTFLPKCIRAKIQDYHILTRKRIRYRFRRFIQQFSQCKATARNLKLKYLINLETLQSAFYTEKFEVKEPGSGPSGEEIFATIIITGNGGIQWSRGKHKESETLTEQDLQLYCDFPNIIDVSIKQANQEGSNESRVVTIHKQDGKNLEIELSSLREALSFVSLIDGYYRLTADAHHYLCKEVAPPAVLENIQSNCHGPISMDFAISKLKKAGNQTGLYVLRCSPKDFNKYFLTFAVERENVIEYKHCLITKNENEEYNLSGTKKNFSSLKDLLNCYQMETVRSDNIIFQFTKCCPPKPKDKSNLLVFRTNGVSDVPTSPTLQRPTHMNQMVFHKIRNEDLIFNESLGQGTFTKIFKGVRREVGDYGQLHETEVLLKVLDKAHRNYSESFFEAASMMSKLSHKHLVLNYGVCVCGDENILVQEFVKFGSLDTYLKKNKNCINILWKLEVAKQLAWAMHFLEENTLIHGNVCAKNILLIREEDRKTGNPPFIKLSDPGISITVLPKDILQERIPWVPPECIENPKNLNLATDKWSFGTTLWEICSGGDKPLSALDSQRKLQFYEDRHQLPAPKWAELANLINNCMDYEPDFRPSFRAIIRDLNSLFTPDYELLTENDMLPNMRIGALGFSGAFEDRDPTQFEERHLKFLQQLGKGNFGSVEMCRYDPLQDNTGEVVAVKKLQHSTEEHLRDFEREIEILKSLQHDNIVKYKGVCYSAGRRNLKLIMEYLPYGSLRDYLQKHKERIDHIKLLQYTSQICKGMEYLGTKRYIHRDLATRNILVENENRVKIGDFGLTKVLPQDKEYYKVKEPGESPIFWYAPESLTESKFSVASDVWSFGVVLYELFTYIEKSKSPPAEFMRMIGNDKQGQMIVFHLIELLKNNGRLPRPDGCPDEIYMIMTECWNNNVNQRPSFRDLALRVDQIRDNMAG

With `C=CCN(C(=O)c1cc(-c2c(F)cnc3[nH]ccc23)c[nH]1)C(C)c1ccccc1` (stereo not drawn) [compound 385], the Ki is less than 0.5 µM in assay [1] (setting [4]), less than 0.5 µM in assay [2] (setting [4]) and 0.5 to 5 µM in assay [3] (setting [4]).
For `O=C(CNc1nc(-c2ccnc3[nH]ccc23)nc2ccccc12)NCC(F)(F)F` [compound 196], the Ki in assay [1] (setting [4]) was 0.5 to 5 µM; in assay [2] (setting [4]), 0.5 to 5 µM; in assay [3] (setting [4]), more than 4 µM.
On to `O=C(NC1CC1)c1ccc(-c2ccnc3[nH]ccc23)cc1` [compound 270], for which the Ki was less than 0.5 µM in assay [1] (setting [4]), 0.5 to 5 µM in assay [2] (setting [4]) and 0.5 to 5 µM in assay [3] (setting [4]).
With `O=C(c1cc(-c2ccnc3[nH]ccc23)c[nH]1)N1CCCC1CO` (stereo not drawn) [compound 362], the Ki in assay [1] (setting [4]) is less than 0.5 µM; in assay [2] (setting [4]), 0.5 to 5 µM; in assay [3] (setting [4]), 0.5 to 5 µM.
As for `Cc1csc(-c2c(Cl)cnc3[nH]ccc23)c1` [compound 144], the Ki was less than 0.5 µM in assay [1] (setting [4]), less than 0.5 µM in assay [2] (setting [4]) and 0.5 to 5 µM in assay [3] (setting [4]).
On to `CC[C@@H](C)NC(=O)c1cc(-c2ccnc3[nH]ccc23)c[nH]1` [compound 289], for which the Ki in assay [1] (setting [4]), in assay [2] (setting [4]) and in assay [3] (setting [4]) was less than 0.5 µM in each case.
For `N#CC1(c2cccc(-c3ccnc4[nH]ccc34)n2)CC1` [compound 101, 1-(6-(1H-pyrrolo[2,3-b]pyridin-4-yl)pyridin-2-yl)cyclopropanecarbonitrile], the Ki in assay [1] (enzyme inhibition, Table 5) was less than 0.5 µM; in assay [2] (enzyme inhibition, Table 5), less than 0.5 µM; in assay [3] (setting [5]), less than 0.5 µM.
For the molecule `O=C(c1csc(-c2ccnc3[nH]ccc23)n1)N1CCC(CO)CC1` [compound 411], the Ki in assay [1] (setting [4]), in assay [2] (setting [4]) and in assay [3] (setting [4]) was 0.5 to 5 µM each time.
Consider `O=C(c1csc(-c2ccnc3[nH]ccc23)n1)N1CC=CC1` [compound 415], for which the Ki was less than 0.5 µM in assay [1] (setting [4]), 0.5 to 5 µM in assay [2] (setting [4]) and less than 0.5 µM in assay [3] (setting [4]).
`O=S(=O)(c1ccccc1)n1cc(-c2c(Cl)cnc3[nH]ccc23)c2ccccc21` [compound 148]: the Ki in assay [1] (setting [4]) was 0.5 to 5 µM; in assay [2] (setting [4]), 0.5 to 5 µM; in assay [3] (setting [4]), more than 4 µM.
With `COC(=O)N1CCCC(Nc2c(Cl)cnc3[nH]ccc23)C1` (stereo not drawn) [compound 173], the Ki in assay [1] (setting [4]) is less than 0.5 µM; in assay [2] (setting [4]) it was less than 0.5 µM; in assay [3] (setting [4]), 0.5 to 5 µM.
In the case of `CN(CCO)c1cccc(-c2ccnc3[nH]ccc23)n1` [compound 35, 2-(N-(6-(1H-Pyrrolo[2,3-b]pyridin-4-yl)pyridin-2-yl)-N-methylamino)ethanol], the Ki in assay [1] (enzyme inhibition, Table 5) was 0.5 to 5 µM; in assay [2] (enzyme inhibition, Table 5) it was 0.5 to 5 µM; in assay [3] (setting [5]), less than 0.5 µM.
On to `O=C(NCC(F)(F)F)c1ccc(-c2ccnc3[nH]ccc23)s1` [compound 260], for which the Ki in assay [1] (setting [4]), in assay [2] (setting [4]) and in assay [3] (setting [4]) was less than 0.5 µM throughout.
`C=CCN(C(=O)c1csc(-c2ccnc3[nH]ccc23)n1)[C@@H](C)c1ccccc1` [compound 408]: the Ki in assay [1] (setting [4]), in assay [2] (setting [4]) and in assay [3] (setting [4]) was less than 0.5 µM in each case.
On to `O=C(c1cc(-c2c(F)cnc3[nH]ccc23)c[nH]1)N(CCC(F)(F)F)CC1CC1` [compound 390], for which the Ki was less than 0.5 µM in assay [1] (setting [4]), less than 0.5 µM in assay [2] (setting [4]) and 0.5 to 5 µM in assay [3] (setting [4]).
As to `CC(C)(Nc1nc(-c2ccnc3[nH]ccc23)nc2ccccc12)C(=O)NCC(F)(F)F` [compound 132], the Ki in assay [1] (enzyme inhibition, Table 5) was more than 5 µM; in assay [2] (enzyme inhibition, Table 5) it was 0.5 to 5 µM; in assay [3] (setting [5]), 0.5 to 5 µM.
`O=C(c1cccc(-c2ccnc3[nH]ccc23)c1)N1CCCCC1` [compound 93, Piperidin-1-yl-[3-(1H-pyrrolo[2,3-b]pyridin-4-yl)-phenyl]-methanone]: the Ki in assay [1] (enzyme inhibition, Table 5) was more than 5 µM; in assay [2] (enzyme inhibition, Table 5), 0.5 to 5 µM; in assay [3] (setting [5]) it was 0.5 to 5 µM.
Turning to `CCN(CCC#N)C(=O)c1cc(-c2ccnc3[nH]ccc23)c[nH]1` [compound 297], the Ki in assay [1] (setting [4]), in assay [2] (setting [4]) and in assay [3] (setting [4]) was less than 0.5 µM each time.

These data come from patent US8921376B2, “Pyrrolopyridines useful as inhibitors of protein kinase” (Vertex Pharmaceuticals Incorporated, priority 2005, dated 2014).
